# Data reported in patent US9050294B2, “Treatment of neural diseases or conditions” (Royal Institution for the Advancement of Learning/McGill …, priority 2008, dated 2015).
# “Also recorded” adds a separate entry of the source.
# Legend:
# [1] = tested on: spinal cord injury (SCI) in BALB/c mice; test: Locomotor recovery after SCI, Basso Mouse Scale (BMS) open-field test; format: in vivo
# Method: (§1) Fenretinide preparation and treatment.
# Locomotor recovery was evaluated in an open-field test using the Basso Mouse Scale (BMS) (Basso et al. (2006) J Neurotrauma 23: 635-659), which was specifically developed for locomotor testing after contusion injuries in mice. The BMS analysis of hindlimb movements and coordination was carried out by two independent trained assessors, and the consensus score taken. The final score is presented as mean±SEM. The BMS is a compressed scale with a maximum score of 9 as compared to the […] BBB scale for rats. Therefore small differences in the BMS can account for larger functional differences.
# microglial cells = test: Cell viability and cell de-attachment studies on microglial cells; format: cell-based, mouse; conditions: 0.625 and 1.25 μM
# [2] = tested on: SOD1^G93A transgenic mice; test: Glial activation in L4 ventral horn (GFAP and Mac-2 immunohistochemistry); format: in vivo, mouse; conditions: L4, 130 days of age; p≦0.05
# Method: (B) For ALS studies: Mice were deeply anaesthetized with a cocktail of ketamine (7.5 mg/ml) and xylazine (0.5 mg/ml) administered via intraperitoneal injection at a dose of 20 ml/kg of body weight. Animals were then sacrificed by transcardial perfusion with 4% paraformaldehyde in 0.1M phosphate buffered saline (PBS). The fourth lumbar spinal cord segment, identified by its contribution to the sciatic nerve was carefully removed, post-fixed for 1 hour in 4% paraformaldehyde solution and cryoprotected overnight in 30% sucrose in 0.1M PBS. […] Images were imported into SigmaScan™ Pro Image Measurement Software Version 5.0.0 (SPSS Inc., Chicago, Ill.) and activated astrocytes and microglia were quantified by exceeding an intensity threshold. […] Serial sections from a separate set were stained for Nissle body detection using cresyl violet staining and the number of motor neurons surviving in the ventral horn were quantified.
# Immunohistochemistry was also performed on different serial sections from the same animals. […] Images of both ventral horns were captured every 300 μm and imported into SigmaScan™ Pro image quantification software. The area occupied by darkly stained cells was quantified and normalized for the total area.
# [3] = tested on: spinal cord injury (SCI) in BALB/c mice; test: AA and DHA levels in plasma and spinal cord after spinal cord contusion (lipid analysis, GC/MS); conditions: 5 mg/kg/day oral
# Method: Adult (8-10 weeks old) female BALB/c mice (Charles River Canada) were anaesthetized with ketamine:xylazine:acepromazine (50:5:1 mg/kg). After performing a laminectomy at the 11th thoracic vertebrae, the exposed spinal cord was contused using the Infinite™ Horizons Impactor device (Precision Scientific Instrumentation, Lexington, Ky.). Moderate injuries were made using a force of 50 kDynes and tissue displacements ranging between 400-600 μm (Ghasemlou et al. (2005) Exp. Neurol. 196: 9-17).
# Fenretinide preparation and treatment. Fenretinide powder was resuspended in 95% ethanol under sterile conditions to generate a 2 μg/μL stock solution. This solution was incorporated into a daily liquid diet of Peptamen™ (Nestle Canada, Brampton, ON) at a dose of 5 mg/kg/day for oral consumption as described previously (Guilbault et al. (2008) Am J Respir Cell Mol Biol 38: 47-56). The suspension was protected from light and kept at 4° C. before treatment of the mice. One hour following surgery and for the subsequent three days, fenretinide was administered by gavage in two doses, each suspended in 300 μL of Peptamen™. Gavage was chosen as the method of drug delivery immediately after surgery due to the loss of appetite and reduced food intake during the first 48 h after injury. After day three, mice were fed the fenretinide/Peptamen™ mixture. At this point mice were separated into individual cages in order to ascertain the amount of food and drug consumed. Following day 3, the diet was administered every morning with careful monitoring of the quantity consumed by each mouse. More specifically, the daily fenretinide dose was incorporated into 12 ml of Peptamen™, which represents 80% of the daily mouse food consumption, to ensure 100% consumption. The food was given to the mice in the mid-morning. The diet for control animals was prepared and administered in the same fashion as the drug treatment; however, control animals received Peptamen™ with no fenretinide added but with an equivalent amount of ethanol.
# (A) For SCI studies: in order to establish plasma kinetics, blood samples were taken from the saphenous vein at day 0, 1, 3, 7, 11, and 21 post-injury. On day 28, blood samples were obtained by intra-cardiac puncture. All blood samples were mixed with 10 μl of EDTA to prevent coagulation and centrifuged at 350×g for 7 minutes at 4° C. The plasma was then removed and lipids were extracted with chloroform-methanol (2:1 vol/vol) containing 1 mM butylated hydroxyanisole (BHA), as previously described (Folch et al. (1957) J Biol Chem 226: 497-509). The lipid fractions were dried under nitrogen and resuspended in heptane as previously described (De Sanctis (1991) Med Sci Res 19: 335-337). Phospholipids were identified by thin layer chromatography extraction. Diazomethane was used to esterify the released fatty acids and the esters were identified by GC/MS (Hewlett Packard 5880A, WCOT) capillary column (Supelco™-10, 35 m×0.5 mm, 1 μm thick) using commercial standards (Sigma-Aldrich, Oakville, ON, Canada). Total levels of DHA and AA as well as phospholipid-bound DHA, phospholipid-bound AA, malonyldialdehyde (MDA) and nitrotyrosine were assessed in both plasma and spinal cord samples.
# [4] = tested on: spinal cord injury (SCI) in BALB/c mice; test: Oxidative stress markers (MDA, nitrotyrosine) in spinal cord after SCI, ELISA; format: in vivo, mouse; conditions: 3 dpi, vs control mice
# From the text: as §1
structure (smiles),measurement,setting,value
"CC1=C(/C=C/C(C)=C/C=C/C(C)=C/C(=O)Nc2ccc(O)cc2)C(C)(C)CCC1 [fenretinide, all-trans-N-(4-hydroxyphenyl) retinamide]",BMS score,"[1]; 5 mg/kg/day oral started 1 h after SCI, 28 dpi, 9-point scale, vehicle 4.6",5.8
same,mean BMS subscore higher than vehicle-treated mice,"[1]; 5 mg/kg/day oral, 28 dpi",2.2 points
same,fine locomotor skills (BMS subscores) vs vehicle,"[1]; 5 mg/kg/day oral, day 7 to 28 after SCI",significant improvement
same,locomotor function (BMS) vs vehicle-treated mice,"[1]; 5 mg/kg/day oral, significant from day 7 after SCI",improved locomotor function; also recorded: significantly enhanced motor skills
same,"toxic effects on the cells (cell viability, cell de-attachment)",microglial cells,did not have any toxic effects
same,GFAP staining of ventral horn: sham-treated mice greater than fenretinide-treated,[2],more than 50%
same,Mac-2 positive stained area: control animals more than fenretinide-treated,[2],60%
same,plasma docosahexaenoic acid (DHA) levels vs vehicle-treated mice,"[3]; started 1 h after SCI, 3 to 28 dpi",concomitant increase; also recorded: significantly higher
same,plasma arachidonic acid (AA) levels vs vehicle-treated mice,"[3]; started 1 h after SCI, day 1 to 28 after SCI",significant reduction
same,AA level in injured spinal cord vs vehicle,[3]; 3 dpi,significant decrease
same,DHA level in injured spinal cord vs vehicle,[3]; 3 dpi,increase
same,decrease of malonyldialdehyde (MDA) level in spinal cord,[4],about 2 fold
same,decrease of nitrotyrosine level in spinal cord,[4],about 2 fold
